Test results as given in patent US8835479B2, “Agent for fungal dermatitis” (Nihon Nohyaku Co., Ltd., priority 2007, dated 2014).

System: Malassezia restricta clinical isolate (R-4)
Assay: Treatment effect on guinea pig seborrheic dermatitis model
Type: in vivo
Conditions: 1% luliconazole cream, 0.1 mL/inoculation site/day for 3 days, compared with 2% ketoconazole cream
Method: Efficacy Evaluation Test 2. Treatment Effect on Guinea Pig Seborrheic Dermatitis Model
A guinea pig seborrheic dermatitis model was prepared using Malassezia restricta (Malassezia (M.) restricta) as a pathogenic fungus, and a skin symptom improving effect and a mycological treatment effect of 1% luliconazole cream were evaluated. As a comparative drug, 2% ketoconazole cream was used.
Luliconazole was prepared by the Applicant, and as 2% ketoconazole, a commercially available preparation was purchased and used.
As Malassezia restricta, a clinical isolate (R-4) isolated and identified by Teikyo University Institute of Medical Mycology was used. 2.5 mL of a modified Leeming (Leeming and Notman) liquid medium (m-LN. containing olive oil) was added per 1 g wet weight of the precultured strain for suspending therein to give an inoculum. […]
The hair on the back of the animal was shaved, and two inoculation sites (diameter 2 cm) were placed on either side of the back skin symmetrically. […] The skin symptoms were observed through the experiment from the inoculation starting day to the day of sacrifice and recorded by using the score. […] The skin section was successively observed from one end to the other end and the fungal content was evaluated by the criteria shown in the Table. The detection frequency of fungus in each section was determined. […]

## N#C/C(=C1/SC[C@@H](c2ccc(Cl)cc2Cl)S1)n1ccnc1 [Luliconazole, (−)-(E)-[(4R)-(2,4-dichlorophenyl)-1,3-dithioran-2-ylidene](1H-imidazol-1-yl)acetonitrile]
PAS-stained skin sections, FIG. 2
  mycological treatment effect: showed mycological cure
FIG. 1
  skin symptom improving effect: improved skin symptom
